These results are taken from patent US20020071869A1, “Microparticle composition and method” (priority 2000, published 2002).

The structures appear in SMILES notation.

The nature of this series: Critical micelle concentration of surfactant. Particulars: at 25° C. The format is physicochemical.

As to `CCCCCCCCCCCCOS(=O)(=O)[O-].[Na+]` [SDS, sodium dodecyl sulfate], the critical micelle concentration is listed as 8.1 mM.
